From US7932031B2, “Methods for determining sensitivity to microtubule-stabilizing agents comprising ixabepilone by measuring the level of estrogen receptor 1” (Bristol-Myers Squibb Company, priority 2004, dated 2011)

Tested on: invasive stage IIA-IIIB breast adenocarcinoma
Experiment: CA163-080 exploratory genomic phase II study, ixabepilone as neoadjuvant treatment, pathologic complete response (Sataloff classification)
Type: in vivo, human
Conditions: breast cancer patients, 40 mg/m^2 3-hour infusion on Day 1, up to four 21-day cycles
Experimental: CA163-080 is an exploratory genomic phase II study that was conducted in breast cancer patients who received ixabepilone as a neoadjuvant treatment. The primary objective of this study was to identify predictive markers of response to ixabepilone through gene expression profiling of pre-treatment breast cancer biopsies. Patients with invasive stage IIA-IIIB breast adenocarcinoma (tumor size≧3 cm diameter) received 40 mg/m^2 ixabepilone as a 3-hour infusion on Day 1 for up to four 21-day cycles, followed by surgery within 3-4 weeks of completion of chemotherapy. A total of 164 patients were enrolled in this study. Biopsies for gene expression analysis were obtained both pre- and post-treatment. […]
Pathological response was assessed using the Sataloff classification system (D. Sataloff et al., J. Am. Coll. Surg., 180(3):297-306 (1995)) and used as an end point for the pharmacogenomic analysis. The pathologic response was evaluated in the primary tumor site at the end of treatment and prior to surgery by assessing histologic changes compared with baseline as following: At the primary tumor site, cellular modifications were evaluated in both the infiltrating tumoral component and in the possible ductal component, to determine viable residual infiltrating component (% of total tumoral mass); residual ductal component (% of total tumoral mass); the mitotic index. […]

## C/C(=C\c1csc(C)n1)[C@@H]1C[C@@H]2O[C@]2(C)CCC[C@H](C)[C@H](O)[C@@H](C)C(=O)C(C)(C)[C@@H](O)CC(=O)N1 [ixabepilone]
The other sites (excluding Russian sites 16, 24 and 25)
  pCR response rate: 19.8%
Tumors from the three Russian sites (16, 24 and 25)
  pCR response rate: 17.2%
